Results published in paper PMC7397748, “Unlabeled lysophosphatidic acid receptor binding in free solution as determined by a compensated interferometric reader” (Journal of Lipid Research, 2020).

Target: T1, lysophosphatidic acid receptor 1 (LPA1) (Homo sapiens, UniProt Q92633)
T1 construct: gene LPAR1; human LPA1 with N-terminal HA tag (HA-LPA1), in B103 cell membrane nanovesicles
Assay: label-free free-solution assay with compensated interferometric reader (FSA-CIR), receptor nanovesicles, vector-subtracted
Format: binding
Settings: read-out: KD ± SEM

T1 sequence (Q92633 whole entry): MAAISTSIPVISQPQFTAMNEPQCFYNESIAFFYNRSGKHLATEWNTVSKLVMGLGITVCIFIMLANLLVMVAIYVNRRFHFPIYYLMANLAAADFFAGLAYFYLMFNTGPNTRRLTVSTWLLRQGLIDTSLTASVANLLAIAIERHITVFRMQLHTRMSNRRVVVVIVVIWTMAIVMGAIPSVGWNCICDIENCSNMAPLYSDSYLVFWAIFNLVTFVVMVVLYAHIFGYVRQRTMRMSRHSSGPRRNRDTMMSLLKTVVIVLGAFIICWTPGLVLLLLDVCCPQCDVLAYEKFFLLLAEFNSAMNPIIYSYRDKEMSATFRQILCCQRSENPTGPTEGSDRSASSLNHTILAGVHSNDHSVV

Kd [nM] | Structure (SMILES)
2.59 | CCCCC/C=C\C/C=C\C/C=C\C/C=C\CCCC(=O)OC[C@@H](O)COP(=O)(O)O [20:4 LPA, 1-arachidonoyl-LPA]
2.08 | CCCCCCCC/C=C\CCCCCCCC(=O)OC[C@@H](O)COP(=O)(O)O [18:1 LPA, 1-oleoyl-LPA]
1.69 | CCCCCCCCCCCCCCCC(=O)OC[C@@H](O)COP(=O)(O)O [16:0 LPA, 1-palmitoyl-LPA]
